Laboratory results: PubChem BioAssay AID248 (DTP/NCI, 2004)
Several values for one entry are separate records, joined by “and”; a condition that tells them apart may be missing. Identical values can stand only once. Toxic doses and inconclusive results are not listed.

System: L1210 leukemia ip in BDF1 mice, survival T/C
Test: NCI In Vivo Anticancer Drug Screen. Data for tumor model L1210 Leukemia (intraperitoneal) in B6D2F1 (BDF1) mice
Conditions: higher = longer survival
How it was run: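 Transplantable tumor model; survival measured in treated vs vehicle control mice. Value = treated/control.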

[1] = endpoint: mean survival time, dose: 100.0 mg/kg/injection, schedule: Q01DX009 (ip), vehicle: saline with Tween-80
[2] = endpoint: mean survival time, dose: 200.0 mg/kg/injection, schedule: Q01DX009 (ip), vehicle: saline with Tween-80
[3] = endpoint: mean survival time, dose: 400.0 mg/kg/injection, schedule: Q01DX009 (ip), vehicle: saline with Tween-80

Compound: COc1cccc2c1C(=O)c1c(O)c3c(c(O)c1C2=O)C[C@@](O)(/C(C)=N/NC(=O)c1ccccc1)C[C@@H]3OC1CC(N)C(O)C(C)O1 (stereo partly drawn)
- T/C (endpoint: mean survival time, dose: 0.25 mg/kg/injection, schedule: Q04DX003 (ip), vehicle: water): 110 % of control
- T/C (endpoint: mean survival time, dose: 0.5 mg/kg/injection, schedule: Q04DX003 (ip), vehicle: water): 111 % of control
- T/C (endpoint: mean survival time, dose: 1.0 mg/kg/injection, schedule: Q04DX003 (ip), vehicle: water): 117 % of control
- T/C (endpoint: mean survival time, dose: 4.0 mg/kg/injection, schedule: Q04DX003 (ip), vehicle: water): 124 % of control
- T/C (endpoint: mean survival time, dose: 8.0 mg/kg/injection, schedule: Q04DX003 (ip), vehicle: water): 151 % of control
- T/C (endpoint: mean survival time, dose: 16.0 mg/kg/injection, schedule: Q04DX003 (ip), vehicle: water): 179 % of control and 205 % of control
- T/C (endpoint: mean survival time, dose: 24.0 mg/kg/injection, schedule: Q04DX003 (ip), vehicle: water): 120 % of control
- T/C (endpoint: median survival time, dose: 0.25 mg/kg/injection, schedule: Q01DX009 (ip), vehicle: water): 94 % of control
- T/C (endpoint: median survival time, dose: 0.25 mg/kg/injection, schedule: Q03HX024 (ip), vehicle: water): 105 % of control
- T/C (endpoint: median survival time, dose: 0.5 mg/kg/injection, schedule: Q01DX009 (ip), vehicle: water): 110 % of control
- T/C (endpoint: median survival time, dose: 0.5 mg/kg/injection, schedule: Q03HX024 (ip), vehicle: water): 110 % of control
- T/C (endpoint: median survival time, dose: 0.78 mg/kg/injection, schedule: Q03HX008 (ip), vehicle: water): 122 % of control
- T/C (endpoint: median survival time, dose: 0.78 mg/kg/injection, schedule: Q03HX024 (ip), vehicle: water): 111 % of control
- T/C (endpoint: median survival time, dose: 1.0 mg/kg/injection, schedule: Q01DX009 (ip), vehicle: water): 115 % of control
- T/C (endpoint: median survival time, dose: 1.0 mg/kg/injection, schedule: Q03HX008 (ip), vehicle: water): 115 % of control
- T/C (endpoint: median survival time, dose: 1.17 mg/kg/injection, schedule: Q03HX024 (ip), vehicle: water): 100 % of control
- T/C (endpoint: median survival time, dose: 1.2 mg/kg/injection, schedule: Q01DX009 (ip), vehicle: water): 105 % of control
- T/C (endpoint: median survival time, dose: 1.2 mg/kg/injection, schedule: Q03HX008 (ip), vehicle: water): 105 % of control
- T/C (endpoint: median survival time, dose: 1.25 mg/kg/injection, schedule: Q04DX003 (ip), vehicle: water): 105 % of control
- T/C (endpoint: median survival time, dose: 1.75 mg/kg/injection, schedule: Q01DX009 (ip), vehicle: water): 94 % of control
- T/C (endpoint: median survival time, dose: 1.75 mg/kg/injection, schedule: Q03HX024 (ip), vehicle: water): 111 % of control
- T/C (endpoint: median survival time, dose: 2.0 mg/kg/injection, schedule: Q01DX009 (ip), vehicle: water): 110 % of control
- T/C (endpoint: median survival time, dose: 2.5 mg/kg/injection, schedule: Q01DX001 (ip), vehicle: water): 115 % of control
- T/C (endpoint: median survival time, dose: 2.5 mg/kg/injection, schedule: Q04DX003 (ip), vehicle: water): 121 % of control
- T/C (endpoint: median survival time, dose: 2.6 mg/kg/injection, schedule: Q01DX009 (ip), vehicle: water): 122 % of control
- T/C (endpoint: median survival time, dose: 2.6 mg/kg/injection, schedule: Q03HX008 (ip), vehicle: water): 105 % of control
- T/C (endpoint: median survival time, dose: 2.6 mg/kg/injection, schedule: Q03HX024 (ip), vehicle: water): 94 % of control
- T/C (endpoint: median survival time, dose: 2.6 mg/kg/injection, schedule: Q04DX003 (ip), vehicle: water): 111 % of control
- T/C (endpoint: median survival time, dose: 3.9 mg/kg/injection, schedule: Q01DX001 (ip), vehicle: water): 111 % of control
- T/C (endpoint: median survival time, dose: 3.9 mg/kg/injection, schedule: Q01DX009 (ip), vehicle: water): 122 % of control
- T/C (endpoint: median survival time, dose: 3.9 mg/kg/injection, schedule: Q03HX008 (ip), vehicle: water): 100 % of control
- T/C (endpoint: median survival time, dose: 3.9 mg/kg/injection, schedule: Q03HX024 (ip), vehicle: water): 88 % of control
- T/C (endpoint: median survival time, dose: 3.9 mg/kg/injection, schedule: Q04DX003 (ip), vehicle: water): 111 % of control
- T/C (endpoint: median survival time, dose: 4.0 mg/kg/injection, schedule: Q03HX008 (ip), vehicle: water): 152 % of control
- T/C (endpoint: median survival time, dose: 5.0 mg/kg/injection, schedule: Q01DX001 (ip), vehicle: water): 115 % of control
- T/C (endpoint: median survival time, dose: 5.0 mg/kg/injection, schedule: Q04DX003 (ip), vehicle: water): 105 % of control
- T/C (endpoint: median survival time, dose: 5.9 mg/kg/injection, schedule: Q01DX001 (ip), vehicle: water): 100 % of control
- T/C (endpoint: median survival time, dose: 5.9 mg/kg/injection, schedule: Q04DX003 (ip), vehicle: water): 100 % of control
- T/C (endpoint: median survival time, dose: 8.9 mg/kg/injection, schedule: Q01DX001 (ip), vehicle: water): 122 % of control
- T/C (endpoint: median survival time, dose: 8.9 mg/kg/injection, schedule: Q01DX009 (ip), vehicle: water): 94 % of control
- T/C (endpoint: median survival time, dose: 8.9 mg/kg/injection, schedule: Q04DX003 (ip), vehicle: water): 111 % of control
- T/C (endpoint: median survival time, dose: 10.0 mg/kg/injection, schedule: Q01DX001 (ip), vehicle: water): 115 % of control
- T/C (endpoint: median survival time, dose: 10.0 mg/kg/injection, schedule: Q04DX003 (ip), vehicle: water): 163 % of control
- T/C (endpoint: median survival time, dose: 13.3 mg/kg/injection, schedule: Q01DX001 (ip), vehicle: water): 111 % of control
- T/C (endpoint: median survival time, dose: 13.3 mg/kg/injection, schedule: Q04DX003 (ip), vehicle: water): 105 % of control
- T/C (endpoint: median survival time, dose: 20.0 mg/kg/injection, schedule: Q01DX001 (ip), vehicle: water): 157 % of control
- T/C (endpoint: median survival time, dose: 20.0 mg/kg/injection, schedule: Q04DX003 (ip), vehicle: water): 100 % of control
- T/C (endpoint: median survival time, dose: 20.0 mg/kg/injection, schedule: Q08DX002 (ip), vehicle: water): 89 % of control

Compound: CC(=O)C(C(N)=O)C(c1ccc2c(c1)OCO2)C(C(C)=O)C(=O)NCc1ccccc1 (stereo not drawn)
- T/C (endpoint: mean survival time, dose: 25.6 mg/kg/injection, schedule: Q04DX002 (ip), vehicle: saline with Tween-80): 98 % of control
- T/C (endpoint: mean survival time, dose: 64.0 mg/kg/injection, schedule: Q04DX002 (ip), vehicle: saline with Tween-80): 95 % of control
- T/C (endpoint: mean survival time, dose: 100.0 mg/kg/injection, schedule: Q04DX003 (ip), vehicle: saline with Tween-80): 87 % of control
- T/C (endpoint: mean survival time, dose: 160.0 mg/kg/injection, schedule: Q04DX002 (ip), vehicle: saline with Tween-80): 91 % of control
- T/C (endpoint: mean survival time, dose: 200.0 mg/kg/injection, schedule: Q04DX003 (ip), vehicle: saline with Tween-80): 90 % of control
- T/C (endpoint: mean survival time, dose: 400.0 mg/kg/injection, schedule: Q04DX002 (ip), vehicle: saline with Tween-80): 98 % of control
- T/C (endpoint: mean survival time, dose: 400.0 mg/kg/injection, schedule: Q04DX003 (ip), vehicle: saline with Tween-80): 91 % of control

Compound: CC(C)COC(=O)C1OC1(C)c1ccccc1 (stereo not drawn)
- T/C [1]: 100 % of control
- T/C [2]: 106 % of control
- T/C [3]: 103 % of control

Compound: CC1CCCCN1Cc1ccccc1CC(=O)c1ccccc1 (stereo not drawn)
- T/C (endpoint: mean survival time, dose: 100.0 mg/kg/injection, schedule: Q04DX002 (ip), vehicle: Klucel (hydroxypropylcellulose) (HPC)): 93 % of control
- T/C (endpoint: mean survival time, dose: 200.0 mg/kg/injection, schedule: Q04DX002 (ip), vehicle: Klucel (hydroxypropylcellulose) (HPC)): 107 % of control

Compound: [N-]=[N+]=NCC1OC(n2cnc3c(N)ncnc32)C(O)C1O (stereo not drawn)
- T/C (endpoint: mean survival time, dose: 100.0 mg/kg/injection, schedule: Q01DX001 (ip), vehicle: saline): 95 % of control
- T/C (endpoint: mean survival time, dose: 200.0 mg/kg/injection, schedule: Q01DX001 (ip), vehicle: saline): 103 % of control
- T/C (endpoint: mean survival time, dose: 400.0 mg/kg/injection, schedule: Q01DX001 (ip), vehicle: saline): 103 % of control

Compound: O=C(Nc1cccc(NC(=O)Nc2cccc(C3=NCCN3)c2)c1)Nc1cccc(C2=NCCN2)c1
- T/C (endpoint: mean survival time, dose: 16.4 mg/kg/injection, schedule: Q01DX Z (ip), vehicle: carboxymethylcellulose (CMC)): 121 % of control
- T/C (endpoint: mean survival time, dose: 27.0 mg/kg/injection, schedule: Q01DX Z (ip), vehicle: carboxymethylcellulose (CMC)): 156 % of control
- T/C (endpoint: mean survival time, dose: 37.0 mg/kg/injection, schedule: Q01DX Z (ip), vehicle: carboxymethylcellulose (CMC)): 121 % of control
- T/C (endpoint: mean survival time, dose: 55.5 mg/kg/injection, schedule: Q01DX Z (ip), vehicle: carboxymethylcellulose (CMC)): 123 % of control
- T/C (endpoint: mean survival time, dose: 66.0 mg/kg/injection, schedule: Q01DX Z (ip), vehicle: carboxymethylcellulose (CMC)): 107 % of control
- T/C (endpoint: mean survival time, dose: 83.3 mg/kg/injection, schedule: Q01DX Z (ip), vehicle: carboxymethylcellulose (CMC)): 121 % of control
- T/C (endpoint: mean survival time, dose: 90.0 mg/kg/injection, schedule: Q01DX Z (ip), vehicle: saline): 107 % of control
- T/C (endpoint: mean survival time, dose: 125.0 mg/kg/injection, schedule: Q01DX Z (ip), vehicle: carboxymethylcellulose (CMC)): 101 % of control
- T/C (endpoint: mean survival time, dose: 187.5 mg/kg/injection, schedule: Q01DX Z (ip), vehicle: carboxymethylcellulose (CMC)): 104 % of control

Compound: O=C(O)C1C2CC3C(C2)C31.[Ag] (stereo not drawn)
- T/C (endpoint: mean survival time, dose: 20.0 mg/kg/injection, schedule: Q01DX009 (ip), vehicle: Klucel (hydroxypropylcellulose) (HPC)): 91 % of control
- T/C (endpoint: mean survival time, dose: 20.0 mg/kg/injection, schedule: Q04DX003 (ip), vehicle: Klucel (hydroxypropylcellulose) (HPC)): 93 % of control
- T/C (endpoint: mean survival time, dose: 40.0 mg/kg/injection, schedule: Q04DX003 (ip), vehicle: Klucel (hydroxypropylcellulose) (HPC)): 89 % of control

Compound: c1ccc(C2CCCCO2)cc1 (stereo not drawn)
- T/C [1]: 94 % of control
- T/C [2]: 100 % of control
- T/C [3]: 88 % of control
